# Source: US20240226098A1, “COMPOUNDS AND METHODS FOR MODULATING SPLICING” (REMIX THERAPEUTICS INC., priority 2020, published 2024)
# Experiments:
# Assay type in all cases: cell-based
# [1] = system: HTT mRNA, alternative junction (AJ); experiment: Splicing assay (RT-qPCR): increase in HTT alternative junction (AJ) mRNA; settings: A673 or K562 cell line, 24 hours treatment, top dose 10 uM; concentration having 50% response in AJ increase
# Protocol: (§1) Compounds described herein were used to modulate RNA transcript abundance in cells. The expression of a target mRNA was measured by detecting the formation of an exon-exon junction in the canonical transcript (CJ). A compound mediated exon-inclusion event was detected by observing an increase in formation of a new junction with an alternative exon (AJ). Real-time qPCR assays were used to detect these splicing switches and interrogate the potency of various compounds towards different target genes. A high-throughput real time quantitative PCR (RT-qPCR) assay was developed to measure these two isoforms of the mRNA (CJ and AJ) for an exemplary gene, HTT, together with a control housekeeping gene, GAPDH or GUSB or PPIA, used for normalization. Briefly, the A673 or K562 cell line was treated with various compounds described herein (e.g., compounds of Formula (I)). After treatment, the levels of the HTT mRNA targets were determined from each sample of cell lysate by cDNA synthesis followed by qPCR.
# (§2) • Cells-to-CT 1-step kit: ThermoFisher A25602, Cells-to-CT lysis reagent: ThermoFisher 4391851C, TaqMan™ Fast Virus 1-Step Master Mix: ThermoFisher 4444436 • GAPDH: VIC-PL, ThermoFisher 4326317E (Assay: Hs99999905_ml)—used for K562/suspension cell lines • GUSB: VIC-PL, ThermoFisher 4326320E (Assay: Hs99999908_ml)—used for K562/suspension cell lines • PPIA: VIC-PL, ThermoFisher 4326316E (Assay: Hs99999904_ml)—used for A673/adherent cell lines
# (§3) The A673 cell line was cultured in DMEM with 10% FBS. Cells were diluted with full growth media and plated in a 96-well plate (15,000 cells in 100 ul media per well). The plate was incubated at 37° C. with 5% CO2 for 24 hours to allow cells to adhere. An 11-point 3-fold serial dilution of the compounds was made in DMSO then diluted in media in an intermediate plate. Compounds were transferred from the intermediate plate to the cell plate with the top dose at a final concentration of 10 uM in the well. Final DMSO concentration was kept at or below 0.25%. The cell plate was returned to the incubator at 37° C. with 5% CO2 for an additional 24 hours.
# (§4) The K562 cell line was cultured in IMDM with 10% FBS. For K562, cells were diluted with full growth media and plated in either a 96-well plate (50,000 cells in 50 uL media per well) or a 384-well plate (8,000-40,000 cells in 45 uL media per well). An 11-point 3-fold serial dilution of the compounds were made in DMSO then diluted in media in an intermediate plate. Compound was transferred from the intermediate plate to the cell plate with the top dose at a final concentration of 10 uM in the well. Final DMSO concentration was kept at or below 0.25%. Final volume was 100 uL for 96-well plate and 50 uL for 384-well plate. The cell plate was then placed in an incubator at 37° C. with 5% CO2 for 24 hours.
# (§5) The cells were then gently washed with 50 uL-100 uL cold PBS before proceeding to addition of lysis buffer. 30 uL-50 uL of room temperature lysis buffer with DNAse I (and optionally RNAsin) was added to each well. Cells were shaken/mixed thoroughly at room temperature for 5-10 minutes for lysis to take place and then 3 uL-5 uL of room temperature stop solution was added and wells were shaken/mixed again. After 2-5 minutes, the cell lysate plate was transferred to ice for RT-qPCR reaction setup. The lysates could also be frozen at −80° C. for later use.
# (§6) In some cases, a direct lysis buffer was used. An appropriate volume of 3× lysis buffer (10 mM Tris, 150 mM NaCl, 1.5%-2.5% Igepal and 0.1-1 U/uL RNAsin, pH 7.4) was directly added to either K562 or A673 cells in media and mixed by pipetting 3 times. The plates were then incubated at room temperature with shaking/rocking for 20-50 minutes to allow for lysis to take place. After this time, the cell lysate plate was transferred to ice to set up for the RT-qPCR reactions. The lysates could also be frozen at −80° C. for later use. […]
# [2] = system: HTT mRNA, canonical junction (CJ); experiment: Splicing assay (RT-qPCR): decrease in HTT canonical junction (CJ) mRNA; settings: A673 or K562 cell line, 24 hours treatment, top dose 10 uM; concentration having 50% response in CJ decrease
# Protocol: as §1, §2, §3, §4, §5, §6
# HTT CJ mRNA = experiment: Gene panel canonical junction qPCR assay: decrease in HTT CJ mRNA; settings: protocol as for Table 2, read-out: HTT (IC50, decrease in CJ mRNA levels)
# Protocol: as §1, §3, §4, §5
# (§7) In some cases, a direct lysis buffer was used. An appropriate volume of 3× lysis buffer (10 mM Tris, 150 mM NaCl, 1.5%-2.5% Igepal and 0.1-1 U/uL RNAsin, pH 7.4) was directly added to either K562 or A673 cells in media and mixed by pipetting 3 times. The plates were then incubated at room temperature with shaking/rocking for 20-50 minutes to allow for lysis to take place. After this time, the cell lysate plate was transferred to ice to set up for the RT-qPCR reactions. The lysates could also be frozen at −80° C. for later use.
# (§8) To set up 10 uL RT-qPCR reactions, cell lysates were transferred to 384-well qPCR plates containing the master mix according to the table below. The plates were sealed, gently vortexed, and spun down before the run. The volumes were adjusted accordingly in some instances where the reaction was carried in 20 uL. The table below summarizes the components of the RT-qPCR reactions:
# (§9) The RT-qPCR reaction was performed using a QuantStudio (ThermoFisher) under the following fast cycling conditions. […]
# SMN2 CJ mRNA = experiment: Gene panel canonical junction qPCR assay: decrease in SMN2 CJ mRNA; settings: protocol as for Table 2, read-out: SMN2 (IC50, decrease in CJ mRNA levels)
# Protocol: as §1, §3, §4, §5, §7, §8, §9
# Target C CJ mRNA = experiment: Gene panel canonical junction qPCR assay: decrease in Target C CJ mRNA; settings: protocol as for Table 2, read-out: Target C (IC50, decrease in CJ mRNA levels)
# Protocol: as §1, §3, §4, §5, §7, §8, §9
IC50 (HTT CJ mRNA) [nM],IC50 (SMN2 CJ mRNA) [nM],IC50 (Target C CJ mRNA) [nM],SMILES,AC50 [1] [nM],AC50 [2] [nM]
1000 to 10000,< 100,100 to 1000,"Cc1cn2cc(NC(=O)c3ccc(N4CCNCC4)c4nccnc34)cc(F)c2n1 [Compound 111, N-[8-fluoro-2-methylimidazo[1,2-a]pyridin-6-yl]-8-(piperazin-1-yl) quinoxaline-5-carboxamide]",1000 to 10000,1000 to 10000
1000 to 10000,< 100,1000 to 10000,"CCN1CCC(c2ccc(C(=O)Nc3cc(F)c4nc(C)cn4c3)c3nnccc23)CC1 [Compound 141, 5-(1-ethylpiperidin-4-yl)-N-[8-fluoro-2-methylimidazo[1,2-a]pyridin-6-yl] cinnoline-8-carboxamide]",1000 to 10000,1000 to 10000
1000 to 10000,< 100,1000 to 10000,"Cc1cn2cc(NC(=O)c3ccc(N4CCC(N(C)C)C4)c4ccnnc34)cc(F)c2n1 (stereo not shown) [Compound 134, 5-[3-(dimethylamino)pyrrolidin-1-yl]-N-[8-fluoro-2-methylimidazo[1,2-a]pyridin-6-yl]cinnoline-8-carboxamide]",1000 to 10000,1000 to 10000
1000 to 10000,< 100,1000 to 10000,"Cc1cn2cc(NC(=O)c3ccc(N4CCC(N5CCCC5)C4)c4ccnnc34)cc(F)c2n1 (stereo not shown) [Compound 133, 5-[[1,3-bipyrrolidin]-1-yl]-N-[8-fluoro-2-methylimidazo[1,2-a]pyridin-6-yl]cinnoline-8-carboxamide]",1000 to 10000,1000 to 10000
1000 to 10000,< 100,> 10000,"Cc1cn2cc(NC(=O)c3ccc(C4CCN(C)CC4)c4ccnnc34)cc(F)c2n1 [Compound 140, N-[8-fluoro-2-methylimidazo[1,2-a]pyridin-6-yl]-5-(1-methylpiperidin-4-yl) cinnoline-8-carboxamide]",1000 to 10000,1000 to 10000
> 10000,100 to 1000,> 10000,Cc1cn2cc(NC(=O)c3ccc(N4C[C@H]5C[C@@H]4C5N(C)C)c4ccnnc34)cc(F)c2n1 (stereo partly shown) [Compound 155],> 10000,> 10000
100 to 1000,100 to 1000,100 to 1000,"Cc1cn2nc(NC(=O)c3ccc(N4CCNCC4)c4ccnnc34)cc(C)c2n1 [Compound 100, N-[2,8-dimethylimidazo[1,2-b]pyridazin-6-yl]-5-(piperazin-1-yl)cinnoline-8-carboxamide]",100 to 1000,100 to 1000
1000 to 10000,< 100,100 to 1000,"Cc1cn2cc(NC(=O)c3ccc(N4CC5(CNC5)C4)c4ccnnc34)cc(F)c2n1 [Compound 131, 5-[2,6-diazaspiro[3.3]heptan-2-yl]-N-[8-fluoro-2-methylimidazo[1,2-a]pyridin-6-yl]cinnoline-8-carboxamide]",1000 to 10000,1000 to 10000
1000 to 10000,< 100,1000 to 10000,"Cc1cn2cc(NC(=O)c3ccc(N4CCC(NC(C)(C)C)CC4)c4ccnnc34)cc(F)c2n1 [Compound 138, 5-[4-(tert-butylamino)piperidin-1-yl]-N-[8-fluoro-2-methylimidazo[1,2-a]pyridin-6-yl]cinnoline-8-carboxamide]",1000 to 10000,1000 to 10000
1000 to 10000,< 100,1000 to 10000,"Cc1cn2cc(NC(=O)c3ccc(N4CCN(C)CC4)c4ccnnc34)cc(F)c2n1 [Compound 127, N-[8-fluoro-2-methylimidazo[1,2-a]pyridin-6-yl]-5-(4-methylpiperazin-1-yl) cinnoline-8-carboxamide]",1000 to 10000,1000 to 10000
100 to 1000,< 100,1000 to 10000,"Cc1cn2cc(NC(=O)c3ccc(N4CCNCC4)c4ccnnc34)cc(F)c2n1 [Compound 101, N-[8-fluoro-2-methylimidazo[1,2-a]pyridin-6-yl]-5-(piperazin-1-yl) cinnoline-8-carboxamide]",100 to 1000,100 to 1000
1000 to 10000,< 100,1000 to 10000,"Cc1cn2cc(NC(=O)c3ccc(N4CCNC(C)C4)c4ccnnc34)cc(F)c2n1 (stereo in doubt) [Compound 147, N-[8-fluoro-2-methylimidazo[1,2-a]pyridin-6-yl]-5-[(3R)-3-methylpiperazin-1-yl]cinnoline-8-carboxamide]",1000 to 10000,1000 to 10000
1000 to 10000,< 100,1000 to 10000,"Cc1cn2cc(NC(=O)c3ccc(N4CCN(C)C(C)C4)c4ccnnc34)cc(F)c2n1 (stereo in doubt) [Compound 150, 5-[(3R)-3,4-dimethylpiperazin-1-yl]-N-[8-fluoro-2-methylimidazo[1,2-a]pyridin-6-yl]cinnoline-8-carboxamide]",1000 to 10000,1000 to 10000
1000 to 10000,1000 to 10000,1000 to 10000,Cc1cn2nc(NC(=O)c3ccc(N4CCNCC4)c4ccnnc34)nc2c(C)n1 [Compound 122],1000 to 10000,1000 to 10000
100 to 1000,< 100,100 to 1000,"Cc1nc2c(F)cc(NC(=O)c3ccc(N4CCNCC4)c4ccnnc34)cc2s1 [Compound 118, N-(4-fluoro-2-methyl-1,3-benzothiazol-6-yl)-5-(piperazin-1-yl) cinnoline-8-carboxamide]",100 to 1000,100 to 1000
1000 to 10000,< 100,100 to 1000,"Cc1cn2cc(NC(=O)c3ccc(N4CCNCC4)c4cncnc34)cc(F)c2n1 [Compound 112, N-[8-fluoro-2-methylimidazo[1,2-a]pyridin-6-yl]-5-(piperazin-1-yl)quinazoline-8-carboxamide]",1000 to 10000,1000 to 10000

SMILES,IC50 (HTT CJ mRNA) [nM],IC50 (SMN2 CJ mRNA) [nM],IC50 (Target C CJ mRNA) [nM],AC50 [1] [nM],AC50 [2] [nM]
"O=C(Nc1cn[nH]c1)c1ccc(N2CCNCC2)c2ccnnc12 [Compound 126, 5-(piperazin-1-yl)-N-(1H-pyrazol-4-yl)cinnoline-8-carboxamide]",> 10000,> 10000,> 10000,> 10000,> 10000
